Read-outs that look alike come from different tables or passages of the source.
Molecular target: T1, ACE-2 (Homo sapiens, UniProt Q9BYF1)
T1 construct: a stop codon inserted after the serine immediately preceding the transmembrane domain; made in house; host or cells: CHO K1 cells (transient transfection, purified from conditioned medium)
Assay: ACE-2 Competitive Substrate Assay (ACS Assay)
Type: biochemical

[1] = Ki class, compounds tested in 5% DMSO, 12 concentrations, read-out: Human ACE-2 Activity
[2] = Ki class, compounds tested in 5% DMSO, 12 compound concentrations, Ki=Kiapp/(1+[S]/Km), read-out: Human ACE-2 Activity
[3] = Table 3, very good ACE-2 inhibiting compounds, species not given, read-out: ACE-2 Activity, Ki

T1 sequence (Q9BYF1 18-740 limits assumed): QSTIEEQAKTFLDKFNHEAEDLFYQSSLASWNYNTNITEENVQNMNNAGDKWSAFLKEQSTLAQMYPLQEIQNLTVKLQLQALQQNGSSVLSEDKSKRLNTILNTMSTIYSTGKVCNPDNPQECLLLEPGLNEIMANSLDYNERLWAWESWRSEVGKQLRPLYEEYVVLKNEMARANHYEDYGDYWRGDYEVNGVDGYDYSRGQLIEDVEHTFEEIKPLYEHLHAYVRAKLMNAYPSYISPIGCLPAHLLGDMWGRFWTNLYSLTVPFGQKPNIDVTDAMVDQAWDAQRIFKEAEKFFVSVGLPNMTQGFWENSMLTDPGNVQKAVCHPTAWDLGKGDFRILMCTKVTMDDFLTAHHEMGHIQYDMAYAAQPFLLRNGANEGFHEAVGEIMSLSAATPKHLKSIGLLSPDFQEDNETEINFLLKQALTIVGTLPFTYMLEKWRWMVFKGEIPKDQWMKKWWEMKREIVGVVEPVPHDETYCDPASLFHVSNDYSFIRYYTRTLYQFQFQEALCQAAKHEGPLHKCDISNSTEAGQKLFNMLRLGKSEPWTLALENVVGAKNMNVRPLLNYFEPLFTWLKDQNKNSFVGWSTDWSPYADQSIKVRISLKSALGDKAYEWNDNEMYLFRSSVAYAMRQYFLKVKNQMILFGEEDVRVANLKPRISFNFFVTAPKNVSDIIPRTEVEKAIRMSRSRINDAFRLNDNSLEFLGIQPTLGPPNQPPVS

| Structure (SMILES) | Ki [1] [nM] | Ki [2] [nM] | Ki [3] [nM] |
| --- | --- | --- | --- |
| CC(C)CC(N[C@@H](Cc1nc2ccccc2n1Cc1ccccc1)C(=O)O)C(=O)O (single isomer, unassigned) [GR, 2-[2-(1-Benzyl-1H-benzoimidazol-2-yl)-1-carboxy-ethylamino]-4-methyl-pentanoic acid] | > 500 |  |  |
| CC(C)CC(N[C@@H](Cc1csc(N)n1)C(=O)O)C(=O)O (single isomer, unassigned) [GU, 2-[2-(2-Amino-thiazol-4-yl)1-carboxy-ethylamino]-4-methyl-pentanoic acid] | > 500 |  |  |
| CC(C)CC(N[C@@H](Cc1cncn1Cc1ccc(Cl)c(Cl)c1)C(=O)O)C(=O)O (single isomer, unassigned) [GX] |  | > 500 |  |
| Cc1nc(C[C@H](NC(CC(C)C)C(=O)O)C(=O)O)cs1 (single isomer, unassigned) [GY, 2-[1-Carboxy-2-(2-methyl-thiazol-4-yl)-ethylamino]-4-methyl-pentanoic acid] |  | > 500 |  |
| CC(C)CC(N[C@@H](Cc1cncn1Cc1ccc(C#N)cc1)C(=O)O)C(=O)O (single isomer, unassigned) [HB, 2-[1-Carboxy-2-[3-(4-cyano-benzyl)-3H-imidazol-4-yl]-ethylamino)4-methyl-pentanoic acid] |  | > 500 |  |
| CC(C)CC(N[C@@H](Cc1cncn1Cc1cccc(Cl)c1)C(=O)O)C(=O)O (single isomer, unassigned) [HD, 2-{1-Carboxy-2-[3-(3-chloro-benzyl)-3H-imidazol-4-yl]-ethylamino)4-methyl-pentanoic acid] |  | > 500 |  |
| CC(C)CC(N[C@@H](Cc1cncn1Cc1cc(Cl)cc(Cl)c1)C(=O)O)C(=O)O (single isomer, unassigned) [HF, 2-[1-Carboxy-2-[3-(3,5-dichloro-benzyl)-3H-imidazol-4-yl]-ethylamino)4-methyl-pentanoic acid] |  | 100 to 500 |  |
| Cc1ccc(Cn2cncc2C[C@H](NC(CC(C)C)C(=O)O)C(=O)O)cc1 (single isomer, unassigned) [HH, 2-[1-Carboxy-2-[3-(4-methyl-benzyl)-3H-imidazol-4-yl]-ethylamino)4-methyl-pentanoic acid] |  | 100 to 500 |  |
| CCCCc1ccc(Cn2cncc2C[C@H](NC(CC(C)C)C(=O)O)C(=O)O)cc1 (single isomer, unassigned) [HI, 2-[2-[3-(4-Butyl-benzyl)-3H-imidazol-4-yl]-1-carboxy-ethylamino]-4-methyl-pentanoic acid] |  | 100 to 500 |  |
| CCCCc1ccc(Cn2cncc2C[C@H](NC(CC(C)C)C(=O)O)C(=O)O)cc1 (single isomer, unassigned) [HJ, 2-[2-[3-(4-Butyl-benzyl)-3H-imidazol-4-yl]-1-carboxy-ethylamino]-4-methyl-pentanoic acid] |  | > 500 |  |
| Cc1ccc(Cn2cncc2C[C@H](NC(CC(C)C)C(=O)O)C(=O)O)cc1C (single isomer, unassigned) [HL, 2-[1-Carboxy-2-[3-(3,4-dimethyl-benzyl)-3H-imidazol-4-yl]-ethylamino]4-methyl-pentanoic acid] |  | > 500 |  |
| CC(C)CC(N[C@@H](Cc1csc(NCc2ccccc2)n1)C(=O)O)C(=O)O (single isomer, unassigned) [HM, 2-[2-(2-Benzylamino-thiazol-4-yl)-1-carboxy-ethylamino]-4-methyl-pentanoic acid] |  | > 500 |  |
| Cc1cccc(Cn2cncc2C[C@H](NC(CC(C)C)C(=O)O)C(=O)O)c1 (single isomer, unassigned) [HP, 2-[1-Carboxy-2-[3-(3-methyl-benzyl)-3H-imidazol-4-yl]-ethylamino]4-methyl-pentanoic acid] |  | > 500 |  |
| Cc1cc(C)cc(Cn2cncc2C[C@H](NC(CC(C)C)C(=O)O)C(=O)O)c1 (single isomer, unassigned) [HR, 2-[1-Carboxy-2-[3-(3,5-dimethyl-benzyl)-3H-imidazol-4-yl]-ethylamino)4-methyl-pentanoic acid] |  | > 500 |  |
| CC(C)CC(N[C@@H](Cc1cncn1Cc1ccc(OC(F)(F)F)cc1)C(=O)O)C(=O)O (single isomer, unassigned) [HT, 2-[1-Carboxy-2-[3-(4-trifluoromethoxy-benzyl)-3H-imidazol-4-yl]-ethylamino]-4-methyl-pentanoic acid] |  | > 500 |  |
| CC(C)CC(N[C@@H](Cc1cncn1Cc1ccc(C(C)C)cc1)C(=O)O)C(=O)O (single isomer, unassigned) [HV, 2-[1-Carboxy-2-[3-(4-isopropyl-benzyl)-3H-imidazol-4-yl]-ethylamino)4-methyl-pentanoic acid] |  | > 500 |  |
| Cc1ccccc1Cn1cncc1C[C@H](NC(CC(C)C)C(=O)O)C(=O)O (single isomer, unassigned) [HW, 2-[1-Carboxy-2-[3-(2-methyl-benzyl)-3H-imidazol-4-yl]-ethylamino]4-methyl-pentanoic acid] |  | 100 to 500 |  |

| Structure (SMILES) | Ki [1] [nM] | Ki [2] [nM] | Ki [3] [nM] |
| --- | --- | --- | --- |
| Cc1ccccc1Cn1cncc1C[C@H](NC(CC(C)C)C(=O)O)C(=O)O (single isomer, unassigned) [HX, 2-[1-Carboxy-2-[3-(2-methyl-benzyl)-3H-imidazol-4-yl]-ethylamino]4-methyl-pentanoic acid] |  | > 500 |  |
| CC(C)CC(N[C@@H](Cc1cncn1Cc1ccc(C(C)(C)C)cc1)C(=O)O)C(=O)O (single isomer, unassigned) [HZ, 2-[2-[3-(4-tert-Butyl-benzyl)-3H-imidazol-4-yl]-1-carboxy-ethylamino]-4-methyl-pentanoic acid] |  | > 500 |  |
| CC(C)CC(N[C@@H](Cc1cncn1Cc1ccccc1CS(=O)(=O)c1ccccc1)C(=O)O)C(=O)O (single isomer, unassigned) [IA, 2-[2-[3-(2-Benzenesulfonylmethyl-benzyl)-3H-imidazol-4-yl]-1-carboxy-ethylamino]-4-methyl-pentanoic acid] |  | > 500 |  |
| CC(C)CC(N[C@@H](Cc1cncn1Cc1ccc([N+](=O)[O-])cc1)C(=O)O)C(=O)O (single isomer, unassigned) [IC, 2-[1-Carboxy-2-[3-(4-nitro-benzyl)-3H-imidazol-4-yl]-ethylamino]-4-methyl-pentanoic acid] |  | < 100 | 50 to 100 |
| CC(C)CC(N[C@@H](Cc1cncn1Cc1ccc([N+](=O)[O-])cc1)C(=O)O)C(=O)O (single isomer, unassigned) [ID, 2-[1-Carboxy-2-[3-(4-nitro-benzyl)-3H-imidazol-4-yl]-ethylamino]-4-methyl-pentanoic acid] |  | > 500 |  |
| CC(C)CC(N[C@@H](Cc1cncn1Cc1ccccc1-c1ccccc1)C(=O)O)C(=O)O (single isomer, unassigned) [IE] |  | > 500 |  |
| CC(C)CC(N[C@@H](Cc1cncn1Cc1cc(C(F)(F)F)cc(C(F)(F)F)c1)C(=O)O)C(=O)O (single isomer, unassigned) [IG, 2-[2-[3-(3,5-Bis-trifluoromethyl-benzyl)-3H-imidazol-4-yl]-1-carboxy-ethylamino]-4-methyl-pentanoic acid] |  | > 500 |  |
| CC(C)CC(N[C@@H](Cc1cncn1Cc1ccc(F)cc1)C(=O)O)C(=O)O (single isomer, unassigned) [IJ, 2-[1-Carboxy-2-[3-(4-fluoro-benzyl)-3H-imidazol-4-yl]-ethylamino]4-methyl-pentanoic acid] |  | > 500 |  |
| COc1cccc(Cn2cncc2C[C@H](NC(CC(C)C)C(=O)O)C(=O)O)c1OC (single isomer, unassigned) [IO, 2-[1-Carboxy-2-[3-(2,3-dimethoxy-benzyl)-3H-imidazol-4-yl]-ethylamino)4-methyl-pentanoic acid] |  | < 100 | 50 to 100 |
| COc1cccc(Cn2cncc2C[C@H](NC(CC(C)C)C(=O)O)C(=O)O)c1OC (single isomer, unassigned) [IP, 2-[1-Carboxy-2-[3-(2,3-dimethoxy-benzyl)-3H-imidazol-4-yl]-ethylamino)4-methyl-pentanoic acid] |  | > 500 |  |
| Cc1c(Cn2cncc2C[C@H](NC(CC(C)C)C(=O)O)C(=O)O)cccc1-c1ccccc1 (single isomer, unassigned) [IQ, 2-[1-Carboxy-2-[3-(2-methyl-biphenyl-3-ylmethyl)-3H-imidazol-4-yl]-ethylamino]-4-methyl-pentanoic acid] |  | 100 to 500 |  |
| Cc1c(Cn2cncc2C[C@H](NC(CC(C)C)C(=O)O)C(=O)O)cccc1-c1ccccc1 (single isomer, unassigned) [IR, 2-[1-Carboxy-2-[3-(2-methyl-biphenyl-3-ylmethyl)-3H-imidazol-4-yl]-ethylamino)-4-methyl-pentanoic acid] |  | > 500 |  |
| COc1ccc2ccccc2c1Cn1cncc1C[C@H](NC(CC(C)C)C(=O)O)C(=O)O (single isomer, unassigned) [IS, 2-[1-Carboxy-2-[3-(2-methoxy-naphthalen-1-ylmethyl)-3H-imidazol-4-yl]-ethylamino]-4-methyl-pentanoic acid] |  | > 500 |  |
| CC(C)CC(N[C@@H](Cc1cncn1Cc1cccc(F)c1F)C(=O)O)C(=O)O (single isomer, unassigned) [IU, 2-[1-Carboxy-2-[3-(2,3-difluoro-benzyl)-3H-imidazol-4-yl]-ethylamino]4-methyl-pentanoic acid] |  | < 100 | 50 to 100 |
| CC(C)CC(N[C@@H](Cc1cncn1Cc1cccc(F)c1F)C(=O)O)C(=O)O (single isomer, unassigned) [IV, 2-[1-Carboxy-2-[3-(2,3-difluoro-benzyl)-3H-imidazol-4-yl]-ethylamino]4-methyl-pentanoic acid] |  | > 500 |  |
| CC(C)CC(N[C@@H](Cc1cncn1Cc1cccc(Cl)c1Cl)C(=O)O)C(=O)O (single isomer, unassigned) [IY, 2-[1-Carboxy-2-[3-(2.3-dichloro-benzyl)-3H-imidazol-4-yl]-ethylamino]4-methyl-pentanoic acid] |  | < 100 |  |
| CC(C)CC(N[C@@H](Cc1cncn1Cc1cccc(C(F)(F)F)c1)C(=O)O)C(=O)O (single isomer, unassigned) [JA, 2-[1-Carboxy-2-[3-(3-trifluoromethyl-benzyl)-3H-imidazol-4-yl]-ethylamino]4-methyl-pentanoic acid] |  | > 500 |  |

From patent publication US7045532B2 (Millennium Pharmaceuticals, Inc., priority 1999, dated 2006)
